Assay results: PMC9503459, “Antifungal Activity, Structural Stability, and Immunomodulatory Effects on Human Immune Cells of Defensin from the Lentil Lens culinaris” (Membranes, 2022)
Where “and” joins values, the source holds several entries; their conditions need not be identical. Equal values may be shown once. No end group written: not given here.

Test system: pro-inflammatory macrophages (Mφ1) from THP-1 cells
Test: Cytokine response by multiplex xMAP, pro-inflammatory macrophages
Assay type: cell-based, human
Details: Mφ1 macrophages (THP-1), 2 µM, 24 h
Experimental: Colorectal adenocarcinoma Caco-2 cell line (ATCC HTB-37) was cultured in complete DMEM/F12 (1:1) medium containing 10% fetal bovine serum (FBS, Gibco) and 1X antibiotic-antimycotic solution (1XAAS, Invitrogen, Waltham, MA, USA). The acute monocytic leukemia THP-1 line (ATCC TIB-202) was cultured in complete RPMI-1640 medium, containing 10% FBS, 1XAAS, and […]. THP-1 cells were differentiated into pro-inflammatory macrophages (Mφ1) with phorbol 12-myristate 13-acetate (Sigma-Aldrich) for 24 h and subsequently polarized with lipopolysaccharide from E. coli (Sigma-Aldrich) and rhIFN-γ (Sigma-Aldrich) for another 48 h according to previously reported protocol. All cells were cultured in a humidified CO2 incubator (5% CO2, 37 °C). Primary peripheral blood mononuclear cells (PBMCs) collected from a healthy donor were purchased from American Type Culture Collection (ATCC PCS-800-011). CD4^+ T-helper and CD8^+ T cytotoxic cells were isolated from PBMCs by magnetic separation with mouse anti-human CD4-PE (clone 13B8.2, Beckman Coulter Diagnostics, Pasadena, CA, USA) and CD8-PE (clone REA734, Miltenyi Biotec, Bergisch Gladbach, Germany), Anti-PE MicroBeads (Miltenyi Biotec), and LS Separation Columns (Miltenyi Biotec). Isolated CD4^+ and CD8^+ cells were expanded separately with Dynabeads™ Human T-Expander CD3/CD28 (Gibco, Waltham, MA, USA) in RPMI-1640 supplemented with 10% FBS, 1XAAS and 100 U/mL rh-IL-2 (Gibco). Regulatory CD4^+ FoxP3^+ T cells (Tregs) were isolated from PBMCs by magnetic separation with CD4^+CD25^+ Regulatory T Cell Isolation Kit, human (Miltenyi Biotec). Primary CD14^+ blood monocytes were isolated from PBMCs by adherence according to standard technique. Monocyte-derived mature dendritic cells (moDCs) were obtained from CD14^+ blood monocytes according to the previously reported protocol. Briefly, blood monocytes were incubated in complete RPMI-1640 medium, containing 10% FBS, 1XAAS, 800 U/mL rhGM-CSF (Sci-Store, Russia, Moscow) and 500 U/mL rhIL-4 (Sci-Store) for 3 days. Fresh complete RPMI-1640 medium with rhGM-CSF and rhIL-4 was added to the culture on day 3. On day 5, fresh complete RPMI-1640 containing 100 U/mL rhTNF-α (Sigma) as well as 800 U/mL rhGM-CSF and 500 U/mL rhIL-4 was added and the culture was incubated for another 4 days until full maturation.
Caco-2 cells were seeded into the wells of a 48-well plate, coated with 0.1% bovine collagen (Sigma-Aldrich) for 24 h, 3 weeks before the experiment with complete DMEM/F12 (1:1) medium renewal every 2–3 days. Monocytes, moDCs, CD4^+ T-helper and CD8^+ T cytotoxic cells, Mφ1, and Regulatory CD4^+ FoxP3^+ T cells were seeded into the wells of 48-well plates in the complete RPMI-1640 medium supplemented with 10% Human AB serum (HABS, Capricorn Scientific, Ebsdorfergrund, Germany) and 1XAAS 24 h prior to the experiment; medium in Caco-2-containing wells was also replaced with the same medium. After 24 h, half of the medium in each well was replaced by fresh complete RPMI-1640 medium with 10% HABS, supplemented with 4 µM of Lc-def for the sample wells or fresh medium alone for the control wells. Cell cultures were kept in CO2-incubator (5% CO2, 37 °C) for another 24 h. Culture supernatants were collected 24 h later and stored at −70 °C degrees less than one month prior to the analytes assessment. […]

Lc-def: defensin from lentil Lens culinaris seeds (UniProt:B3F051), recombinant, overexpressed in Escherichia coli (KTCENLSDSFKGPCIPDGNCNKHCKEKEHLLSGRCRDDFRCWCTRNC; disulfide (positions not given here); ends not checked; also: disulfide bonds present, pairing not given here; UniProt B3F051 28-74, looked up)
EGF: 2.32 pg/mL
Eotaxin: <3.23↓ pg/ml
FGF-2: 16.21 pg/mL
FLT-3L: 2.27 pg/mL
Fractalkine: <23.19↓ pg/ml
G-CSF: 1150 pg/mL
GM-CSF: 74.32 pg/mL
GROa: 545.96 pg/mL
IFNa2: 7.77 pg/mL
IFNg: <1.99↓ pg/ml
IL-1RA: 101.1 pg/mL
IL-1a: 38.93 pg/mL
IL-1b: 471.74 pg/mL
IL-2: <0.31↓ pg/ml
IL-3: <0.48↓ pg/ml
IL-4: 0.92 pg/mL
IL-5: <0.24↓ pg/ml
IL-6: 1022 pg/mL
IL-7: <0.33↓ pg/ml
IL-8: >17785↑ pg/ml
IL-9: <1.05↓ pg/ml
IL-10: 41.17 pg/mL
IL-12 (p40): <3.02↓ pg/ml
IL-12 (p70): 4.54 pg/mL
IL-13: 15.11 pg/mL
IL-15: <1.45↓ pg/ml
IL-17A: <1.55↓ pg/ml
IL-17E/IL-25: <20.59↓ pg/ml
IL-17F: <16.96↓ pg/ml
IL-18: 6.51 pg/mL
IL-22: 28.78 pg/mL
IL-27: 40.89 pg/mL
IP-10: <1.56↓ pg/ml
M-GSF: <23.75↓ pg/ml
MCP-1: 259 pg/mL and 259.04 pg/mL
MCP-3: 8.66 pg/mL
MDC: <0.35↓ pg/ml
MIG: 124 pg/mL and 124.97 pg/mL
MIP-1a: 2680 pg/mL
MIP-1b: 413 pg/mL and 413.11 pg/mL
PDGF-AA: 4181 pg/mL
PDGF-AB/BB: <9.75↓ pg/ml
RANTES: 23.61 pg/mL
TGF-a: 0.89 pg/mL
TNFa: 1942 pg/mL
TNFb: 1.95 pg/mL
VEGFa: 48.67 pg/mL
sCD40L: 14.8 pg/mL
